Where two headings read alike, the source gives them in different places.
Legend:
TLR4 [1] = molecular target: TLR4 (Homo sapiens, UniProt O00206+Q9Y6Y9)
TLR4 [2] = molecular target: T1, TLR4 (Homo sapiens, UniProt O00206); experiment: Whole blood model of inflammation (cytokine secretion after LPS or E. coli); format: cell-based
Method: Test of TLR4 inhibition by compounds of the invention with respect to impact on secretion of cytokines IL-6, IL-8, (TNFα) and IL1β in the whole blood model of inflammation was performed using the procedure described by Mollnes et al. (Blood, 2002, 100, 1869-1877) using (i) LPS to compare the two variants of 2126-HCl in a restricted set-up, (ii) gram negative bacteria to initiate innate immune response that involves both TLR4/MD2, TLR2, as well as the complement system (compare to anti-CD14 and compstatin).

[3] = tested on: LPS-induced TLR4 activation; experiment: Real time microscopy of Akt1-GFP translocation (TLR4 signaling) in RAW264.7 macrophages; format: cell-based, mouse; conditions: RAW 264.7 Akt1-GFP, LPS 2 ng/ml
Method: Lipopolysaccharide (LPS)-induced TLR4 activation initiates the phosphoinositide 3-kinase (PI3K) cascade, triggering translocation of Akt1 to the plasma membrane in murine macrophages. RAW 264.7 cells transfected with an Akt1-GFP reporter13 were treated with drug then activated with LPS. In the absence of LPS, Akt1-GFP was uniformly diffused throughout the cytosol as observed by fluorescence microscopy. Addition of LPS (2 ng/ml) caused a rapid translocation of Akt1-GFP to the plasma membrane, lowering the Akt1-GFP concentration in the cytosol. Doses of Compound A-1 as low as 2 μM and Compound A-2 as low as 200 nM substantially abolished LPS-induced activation of the signaling pathway.
FIGS. 3A and 3B. A small dose of chemotactic peptide C5a (25 ng/mL) that stimulates PI3K15 was able to rescue the Akt signaling inhibited by either compound. […]
TLR4 signaling leads to the simultaneous activation of three parallel intra-cellular signaling pathways. […] Baseline fluorescence was captured for 5 frames, following which vehicle or antagonist was added in 200 μl. Imaging continued for a further 20 frames at which time LPS or test agonist (200 μl) were applied and monitored for a further 20 frames. […] GFP-Akt1 cytosolic clearance was quantified using ImageJ and expressed as a normalized change in cytoplasmic fluorescence over time.

[4] = tested on: HEK293 cells stably transfected with TLR4; experiment: Cell viability assay (Trypan Blue); format: cell-based, human; conditions: tested concentrations, FIG. 4
Method: Human embryonic kidney 293 (HEK293) cells were stably transfected with TLR4 and necessary assembly and signalling proteins (MD2, CD-14, LPSBP, etc.). Cells were cultured in DMEM supplemented with 10% FBS, penicillin (100 U/ml), streptomycin ([…]), L-glutamine (2 mM), 0.1 mg/ml normocin (InvivoGen, CA, USA) and 1×HEK Blue selection reagent (InvivoGen, CA, USA). Cells were implanted in 6 cm plates and grown to 65-75% confluency by incubating at 37° C., prior to drug treatment. On the day of treatment, media was removed from the 6 cm plate and replaced with cerebrospinal fluid (CSF) buffer supplemented with drug treatment. After 24 h incubation at 37° C., CSF was removed and cells were agitated with 0.05% Trypsin plus 0.2 g/l EDTA (Invitrogen, CA, USA) and re-suspended in fresh DMEM supplemented media. After re-suspension, a […] was taken from each 6 cm plate, mixed gently with 100 μl 0.4% Trypan Blue (Sigma, Mo., USA) and allowed to sit for 5 min. The ratio of blue stained cells to total cells was then quantified using a Bright Line 0.1 mm depth hemocytometer (VWR, PA, USA) under a Nikon TMS light microscope (Nikon Instrumentals, CA USA).

[5] = rat, in vivo
[6] = Hargreaves test (radiant heat withdrawal), intrathecal injection with or without morphine; conditions: rat
TLR4 [7] = molecular target: T1, TLR4; experiment: Secreted alkaline phosphatase (SEAP) reporter gene assay in HEK293 cells transfected with TLR4; format: cell-based; conditions: HEK293, SEAP reporter downstream of NF-κB promoter; dose-dependent manner
Method: FIGS. 3A and 3B. A small dose of chemotactic peptide C5a (25 ng/mL) that stimulates PI3K15 was able to rescue the Akt signaling inhibited by either compound. Global translocation of Akt1-GFP to the plasma membrane was observed, confirming that these cells retained normal Akt signaling transduction functions. Akt1 is directly downstream of TLR4 in the signal transduction pathway. […] Murine macrophages express a variety of TLRs and immune receptors. […] The activity of Compound A-1 was further confirmed in an established TLR4 assay in HEK293 cells, where a secreted alkaline phosphatase reporter gene is located downstream from the NF-κB promoter. Compound A-1 was effective at blocking the downstream proinflammatory effectors of TLR4 in a dose-dependent manner.
Materials for the SEAP assay were obtained from Applied Biosystems (CA, USA) and utilized according to the manufacturer's specifications. Human embryonic kidney 293 (HEK293) cells stably transfected with TLR4 and a secreted alkaline phosphatase (SEAP) reporter gene was obtained from Invivogen (CA, USA). […]
A sample of CSF buffer (15 μL) from each well was collected and transferred to an opaque white 96 well plate (Microfluor 2, Thermo Scientific MA, USA). […] After 20 min, the luminescence of each well was measured using a plate reader (Beckman Coulter, DTX 880, CA, USA) with multimode analysis software.

[8] = clinically employed (−)-opioids

T1 sequence (O00206 24-839): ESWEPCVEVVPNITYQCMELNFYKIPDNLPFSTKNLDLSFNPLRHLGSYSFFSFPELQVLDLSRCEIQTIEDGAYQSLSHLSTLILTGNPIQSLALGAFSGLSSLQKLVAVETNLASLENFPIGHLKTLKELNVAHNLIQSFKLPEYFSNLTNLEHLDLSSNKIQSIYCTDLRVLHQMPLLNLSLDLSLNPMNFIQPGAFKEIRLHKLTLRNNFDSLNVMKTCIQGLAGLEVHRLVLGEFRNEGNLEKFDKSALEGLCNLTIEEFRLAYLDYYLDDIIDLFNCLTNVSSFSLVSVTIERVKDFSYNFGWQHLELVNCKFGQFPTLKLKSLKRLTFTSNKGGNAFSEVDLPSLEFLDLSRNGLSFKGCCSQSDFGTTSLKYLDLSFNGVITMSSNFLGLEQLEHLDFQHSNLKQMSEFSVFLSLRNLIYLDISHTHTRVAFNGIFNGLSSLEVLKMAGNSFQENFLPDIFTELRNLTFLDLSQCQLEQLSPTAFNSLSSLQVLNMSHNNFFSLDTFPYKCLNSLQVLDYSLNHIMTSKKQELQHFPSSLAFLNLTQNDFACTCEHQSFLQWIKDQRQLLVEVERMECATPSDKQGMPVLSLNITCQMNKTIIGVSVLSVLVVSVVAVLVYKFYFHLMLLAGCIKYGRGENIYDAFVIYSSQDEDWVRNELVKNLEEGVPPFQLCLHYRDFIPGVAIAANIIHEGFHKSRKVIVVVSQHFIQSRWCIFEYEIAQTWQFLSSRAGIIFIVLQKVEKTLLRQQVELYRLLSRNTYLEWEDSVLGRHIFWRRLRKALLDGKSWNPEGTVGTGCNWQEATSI
Chain of TLR4 (Homo sapiens, UniProt O00206+Q9Y6Y9) (O00206 24-839, species assumed): as the sequence (O00206 24-839) above
Chain of TLR4 (Homo sapiens, UniProt O00206+Q9Y6Y9) (Q9Y6Y9 19-160, species assumed): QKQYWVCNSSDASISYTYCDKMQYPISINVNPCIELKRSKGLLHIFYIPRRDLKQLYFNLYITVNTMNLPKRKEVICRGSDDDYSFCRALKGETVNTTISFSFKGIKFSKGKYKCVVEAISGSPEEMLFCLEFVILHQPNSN

With COc1ccc2c3c1O[C@H]1C(=O)CC[C@@]4(O)[C@@H](C2)N(C)CC[C@]314 [oxycodone] the TLR4 agonism (TLR4 [1]; [8]) was “TLR4 agonists”.
With CN1CC[C@]23c4c5ccc(O)c4O[C@H]2[C@@H](O)C=C[C@H]3[C@H]1C5 [morphine] the TLR4 agonism (TLR4 [1]) was “TLR4 agonists”.
With CC[C@H](C)[C@H](N)C(=O)N[C@H]1CSSC[C@@H](C(=O)N[C@H](C(N)=O)[C@@H](C)O)NC(=O)[C@H](CCCN=C(N)N)NC(=O)[C@H](Cc2cnc[nH]2)NC(=O)[C@H](Cc2cnc[nH]2)NC(=O)CNC(=O)[C@H](Cc2c[nH]c3ccccc23)NC(=O)[C@H](CC(=O)O)NC(=O)[C@H](CCC(N)=O)NC(=O)[C@H](C(C)C)NC(=O)[C@H](C(C)C)NC1=O [compstatin] the “effect of compstatin on the inhibition of Il-6 levels by anti-CD14 and 2126-HCl” value (TLR4 [2]; E. coli as activator) was “increased the inhibitory effect”, the “reduction of Il-1β plasma levels” value (TLR4 [2]; E. coli stimulation, 2126-HCl 500 μM, compstatin 25 μM) was “about 50%” and the “cytokine release in response to E. coli on addition of compstatin” value (TLR4 [2]; E. coli, added to anti-CD14 or 2126-HCl) was “further decreased”. The cytokine specificity (TLR4 [2]; compstatin itself) was “specific for Il8 and Il-1β” and the “effect on Il-6 secretion / plasma levels” value (TLR4 [2]; whole blood) was “little impact”.
In the case of CCOc1ccc(OCC(O)CN(C)Cc2c(C)nn(Cc3ccccc3Cl)c2C)cc1 (stereo not drawn) [Compound A-1, 1-(((1-(2-chlorobenzyl)-3,5-dimethyl-1H-pyrazol-4-yl)methyl)(methyl)amino)-3-(4-ethoxyphenoxy)propan-2-ol], the “dose that substantially abolished LPS-induced activation of the signaling pathway” value [3] is reported as no more than 2 µM, the cellular toxicity [4] is reported as “neither Compound A-1 nor Compound A-2 showed any significant cellular toxicity” and the “behavioral effects of compound alone” value [5] is reported as “no detectable behavioral effects”. The “potentiation of the analgesic effects of morphine” value ([6]; with morphine, maximal analgesia recordable (10 s cut-off) across two hours) was “significantly potentiated”, the “effect on pain responsivity in the absence of co-administered morphine” value ([6]; without morphine) was “no effect” and the “blocking the downstream proinflammatory effectors of TLR4” value (TLR4 [7]) was “effective”.
For CCC(=O)C(CC(C)N(C)C)(c1ccccc1)c1ccccc1 (stereo not drawn) [methadone], the TLR4 agonism (TLR4 [1]; [8]) was “TLR4 agonists”.
In the case of CCOC(=O)C1(c2ccccc2)CCN(C)CC1 [pethadine/meperidine], the TLR4 agonism (TLR4 [1]; [8]) is reported as “TLR4 agonists”.

Source: patent publication US8642614B2, “Toll-like receptor modulators and uses thereof” (The Regents of the University of Colorado, a body corporate, priority 2009, dated 2014)
